The results in this text go back to patent US10213433B2 (AbbVie Inc., priority 2010, dated 2019).

Where only a bound is given, the exact number is not on record here.

For the assay, the target named is Bcl-2 protein (Homo sapiens (Human), UniProt P10415). Description: Bcl-2 binding TR-FRET (Time-Resolved Fluorescence-Resonance-Energy-Transfer) assay. Conditions: inhibition constant for binding to Bcl-2 protein. The text has this: The smaller the Ki value, the greater is the binding affinity.
Sequence of Bcl-2 protein (P10415 whole entry): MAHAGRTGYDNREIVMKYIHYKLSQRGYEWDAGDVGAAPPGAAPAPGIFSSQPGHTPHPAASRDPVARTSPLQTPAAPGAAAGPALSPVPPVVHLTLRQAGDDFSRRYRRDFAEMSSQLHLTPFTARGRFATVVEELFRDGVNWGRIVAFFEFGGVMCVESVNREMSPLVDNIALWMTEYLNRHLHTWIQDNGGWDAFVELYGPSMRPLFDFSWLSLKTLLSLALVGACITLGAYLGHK
A general note: Time-resolved FRET reads energy transfer from a long-lived donor to a nearby acceptor.
As for `CC(=O)N1CC[C@@H](Nc2ccc(S(=O)(=O)NC(=O)c3ccc(N4CCN(CC5=C(c6ccc(Cl)cc6)CC(C)(C)CC5)CC4)cc3Oc3cnc4[nH]ccc4c3)cc2[N+](=O)[O-])C1` [Compound 154, N-[(4-{[(3R)-1-acetylpyrrolidin-3-yl]amino}-3-nitrophenyl)sulfonyl]-4-(4-{[2-(4-chlorophenyl)-4,4-dimethylcyclohex-1-en-1-yl]methyl}piperazin-1-yl)-2-(1H-pyrrolo[2,3-b]pyridin-5-yloxy)benzamide], the Ki (usually the equilibrium dissociation constant of an inhibitor or competing ligand from its target) is under 0.01 nM.

`CC1(C)CCC(CN2CCN(c3ccc(C(=O)NS(=O)(=O)c4ccc(NC5CN(C6COC6)C5)c([N+](=O)[O-])c4)c(Oc4cnc5[nH]ccc5c4)c3)CC2)=C(c2ccc(Cl)cc2)C1` [Compound 256, 4-(4-{[2-(4-chlorophenyl)-4,4-dimethylcyclohex-1-en-1-yl]methyl}piperazin-1-yl)-N-[(3-nitro-4-{[1-(oxetan-3-yl)azetidin-3-yl]amino}phenyl)sulfonyl]-2-(1H-pyrrolo[2,3-b]pyridin-5-yloxy)benzamide] returned a Ki of under 0.01 nM. With `CC1CN(c2ccc(C(=O)NS(=O)(=O)c3ccc(NCC4CCOCC4)c([N+](=O)[O-])c3)c(Oc3cnc4[nH]ccc4c3)c2)CCN1CC1=C(c2ccc(Cl)cc2)CC(C)(C)CC1` (stereo not shown) [Compound 290, 4-(4-{[2-(4-chlorophenyl)-4,4-dimethylcyclohex-1-en-1-yl]methyl}-3-methylpiperazin-1-yl)-N-({3-nitro-4-[(tetrahydro-2H-pyran-4-ylmethyl)amino]phenyl}sulfonyl)-2-(1H-pyrrolo[2,3-b]pyridin-5-yloxy)benzamide] the figure was under 0.01 nM.

Molecule `CC1(C)CCC(CN2CCN(c3ccc(C(=O)NS(=O)(=O)c4ccc(NCC5CN(CC(F)F)CCO5)c([N+](=O)[O-])c4)c(Oc4cnc5[nH]ccc5c4)c3)CC2)=C(c2ccc(Cl)cc2)C1` (stereo not shown) [Compound 166, 4-(4-{[2-(4-chlorophenyl)-4,4-dimethylcyclohex-1-en-1-yl]methyl}piperazin-1-yl)-N-{[4-({[4-(2,2-difluoroethyl)morpholin-2-yl]methyl}amino)-3-nitrophenyl]sulfonyl}-2-(1H-pyrrolo[2,3-b]pyridin-5-yloxy)benzamide] returned a Ki of under 0.01 nM. With `CCN(C)C(=O)N1CCOC(CNc2ccc(S(=O)(=O)NC(=O)c3ccc(N4CCN(CC5=C(c6ccc(Cl)cc6)CC(C)(C)CC5)CC4)cc3Oc3cnc4[nH]ccc4c3)cc2[N+](=O)[O-])C1` (stereo not shown) [Compound 318, 2-{[(4-{[4-(4-{[2-(4-chlorophenyl)-4,4-dimethylcyclohex-1-en-1-yl]methyl}piperazin-1-yl)-2-(1H-pyrrolo[2,3-b]pyridin-5-yloxy)benzoyl]sulfamoyl}-2-nitrophenyl)amino]methyl}-N-ethyl-N-methylmorpholine-4-carboxamide] the figure was under 0.01 nM. The figure for `CC1(C)CCC(CN2CCN(c3ccc(C(=O)NS(=O)(=O)c4ccc(NCC5CCN(C6COC6)CC5)c([N+](=O)[O-])c4)c(Oc4cnc5[nH]ccc5c4)c3)CC2)=C(c2ccc(Cl)cc2)C1` [Compound 163, 4-(4-{[2-(4-chlorophenyl)-4,4-dimethylcyclohex-1-en-1-yl]methyl}piperazin-1-yl)-N-[(3-nitro-4-{[(1-oxetan-3-ylpiperidin-4-yl)methyl]amino}phenyl)sulfonyl]-2-(1H-pyrrolo[2,3-b]pyridin-5-yloxy)benzamide] is under 0.01 nM. The figure for `CC1(C)CCC(CN2CCN(c3ccc(C(=O)NS(=O)(=O)c4ccc(OCC5(F)CCN(S(C)(=O)=O)CC5)c([N+](=O)[O-])c4)c(Oc4cnc5[nH]ccc5c4)c3)CC2)=C(c2ccc(Cl)cc2)C1` [Compound 194, 4-(4-{[2-(4-chlorophenyl)-4,4-dimethylcyclohex-1-en-1-yl]methyl}piperazin-1-yl)-N-[(4-{[4-fluoro-1-(methylsulfonyl)piperidin-4-yl]methoxy}-3-nitrophenyl)sulfonyl]-2-(1H-pyrrolo[2,3-b]pyridin-5-yloxy)benzamide] is under 0.01 nM.

Take `COC(=O)N1CCOC(CNc2ccc(S(=O)(=O)NC(=O)c3ccc(N4CCN(CC5=C(c6ccc(Cl)cc6)CC(C)(C)CC5)CC4)cc3Oc3cnc4[nH]ccc4c3)cc2[N+](=O)[O-])C1` (stereo not shown) [Compound 317, methyl 2-{[(4-{[4-(4-{[2-(4-chlorophenyl)-4,4-dimethylcyclohex-1-en-1-yl]methyl}piperazin-1-yl)-2-(1H-pyrrolo[2,3-b]pyridin-5-yloxy)benzoyl]sulfamoyl}-2-nitrophenyl)amino]methyl}morpholine-4-carboxylate]: the Ki is under 0.01 nM.

Regarding `CC1(C)CCC(CN2CCN(c3ccc(C(=O)NS(=O)(=O)c4cnc(OCC5(F)CCN(C(CF)CF)CC5)c(Cl)c4)c(Oc4cnc5[nH]ccc5c4)c3)CC2)=C(c2ccc(Cl)cc2)C1` [Compound 282, N-[(5-chloro-6-{[1-(1,3-difluoropropan-2-yl)-4-fluoropiperidin-4-yl]methoxy}pyridin-3-yl)sulfonyl]-4-(4-{[2-(4-chlorophenyl)-4,4-dimethylcyclohex-1-en-1-yl]methyl}piperazin-1-yl)-2-(1H-pyrrolo[2,3-b]pyridin-5-yloxy)benzamide], the inhibitory constant (Ki) is under 0.01 nM. With `CC1(C)CCC(CN2CCN(c3ccc(C(=O)NS(=O)(=O)c4ccc(N[C@@H]5CCN(CC#N)C5)c([N+](=O)[O-])c4)c(Oc4cnc5[nH]ccc5c4)c3)CC2)=C(c2ccc(Cl)cc2)C1` [Compound 262, 4-(4-{[2-(4-chlorophenyl)-4,4-dimethylcyclohex-1-en-1-yl]methyl}piperazin-1-yl)-N-[(4-{[(3R)-1-(cyanomethyl)pyrrolidin-3-yl]amino}-3-nitrophenyl)sulfonyl]-2-(1H-pyrrolo[2,3-b]pyridin-5-yloxy)benzamide] the figure was under 0.01 nM.

With `CC1(C)CCC(CN2CCN(c3ccc(C(=O)NS(=O)(=O)c4ccc(NCC5(N)CCOCC5)c([N+](=O)[O-])c4)c(Oc4cnc5[nH]ccc5c4)c3)CC2)=C(c2ccc(Cl)cc2)C1` [Compound 108, N-[(4-{[(4-aminotetrahydro-2H-pyran-4-yl)methyl]amino}-3-nitrophenyl)sulfonyl]-4-(4-{[2-(4-chlorophenyl)-4,4-dimethylcyclohex-1-en-1-yl]methyl}piperazin-1-yl)-2-(1H-pyrrolo[2,3-b]pyridin-5-yloxy)benzamide], the Ki is under 0.01 nM. The figure for `CC1(C)CCC(CN2CCN(c3ccc(C(=O)NS(=O)(=O)c4ccc(OCC5(F)CCN(C(=O)OC(C)(C)C)CC5)c([N+](=O)[O-])c4)c(Oc4cnc5[nH]ccc5c4)c3)CC2)=C(c2ccc(Cl)cc2)C1` [Compound 126, tert-butyl 4-{[4-({[4-(4-{[2-(4-chlorophenyl)-4,4-dimethylcyclohex-1-en-1-yl]methyl}piperazin-1-yl)-2-(1H-pyrrolo[2,3-b]pyridin-5-yloxy)benzoyl]amino}sulfonyl)-2-nitrophenoxy]methyl}-4-fluoropiperidine-1-carboxylate] is under 0.01 nM; for `CC1(C)CCC(CN2CCN(c3ccc(C(=O)NS(=O)(=O)c4cnc(O[C@H]5CC[C@H](N6CCOCC6)CC5)c(Br)c4)c(Oc4cnc5[nH]ccc5c4)c3)CC2)=C(c2ccc(Cl)cc2)C1` [Compound 124] it is under 0.01 nM. The molecule `CC1(C)CCC(CN2CCN(c3ccc(C(=O)NS(=O)(=O)c4ccc(NC[C@H]5CC[C@H](O)CC5)c([N+](=O)[O-])c4)c(Oc4cnc5[nH]ccc5c4)c3)CC2)=C(c2ccc(Cl)cc2)C1` [Compound 120] registered a Ki of under 0.01 nM. With `O=C(NS(=O)(=O)c1ccc(OCC2(F)CCOCC2)c([N+](=O)[O-])c1)c1ccc(N2CCN(CC3=C(c4ccc(Cl)cc4)CCC4(CCCC4)C3)CC2)cc1Oc1cnc2[nH]ccc2c1` [Compound 73, 4-(4-{[8-(4-chlorophenyl)spiro[4.5]dec-7-en-7-yl]methyl}piperazin-1-yl)-N-({4-[(4-fluorotetrahydro-2H-pyran-4-yl)methoxy]-3-nitrophenyl}sulfonyl)-2-(1H-pyrrolo[2,3-b]pyridin-5-yloxy)benzamide] the figure was under 0.01 nM. The figure for `COc1ccc(CNc2ccc(S(=O)(=O)NC(=O)c3ccc(N4CCN(CC5=C(c6ccc(Cl)cc6)CC(C)(C)CC5)CC4)cc3Oc3cnc4[nH]ccc4c3)cc2[N+](=O)[O-])cc1` [Compound 174, 4-(4-{[2-(4-chlorophenyl)-4,4-dimethylcyclohex-1-en-1-yl]methyl}piperazin-1-yl)-N-({4-[(4-methoxybenzyl)amino]-3-nitrophenyl}sulfonyl)-2-(1H-pyrrolo[2,3-b]pyridin-5-yloxy)benzamide] is under 0.01 nM; for `CC1(C)CCC(CN2CCN(c3ccc(C(=O)NS(=O)(=O)c4ccc(NCC5CCOC5)c([N+](=O)[O-])c4)c(Oc4cnc5[nH]ccc5c4)c3)CC2)=C(c2ccc(Cl)cc2)C1` (stereo not shown) [Compound 114, 4-(4-{[2-(4-chlorophenyl)-4,4-dimethylcyclohex-1-en-1-yl]methyl}piperazin-1-yl)-N-({3-nitro-4-[(tetrahydrofuran-3-ylmethyl)amino]phenyl}sulfonyl)-2-(1H-pyrrolo[2,3-b]pyridin-5-yloxy)benzamide] it is under 0.01 nM; for `CC1(C)CCC(CN2CCN(c3ccc(C(=O)NS(=O)(=O)c4ccc(NCC5CN(CC#N)CCO5)c([N+](=O)[O-])c4)c(Oc4cnc5[nH]ccc5c4)c3)CC2)=C(c2ccc(Cl)cc2)C1` (stereo not shown) [Compound 214, 4-(4-{[2-(4-chlorophenyl)-4,4-dimethylcyclohex-1-en-1-yl]methyl}piperazin-1-yl)-N-{[4-({[4-(cyanomethyl)morpholin-2-yl]methyl}amino)-3-nitrophenyl]sulfonyl}-2-(1H-pyrrolo[2,3-b]pyridin-5-yloxy)benzamide] it is under 0.01 nM. The figure for `CC1(C)CCC(CN2CCN(c3ccc(C(=O)NS(=O)(=O)c4ccc(N[C@H]5CCN(CC(F)F)C5)c([N+](=O)[O-])c4)c(Oc4cnc5[nH]ccc5c4)c3)CC2)=C(c2ccc(Cl)cc2)C1` [Compound 182, 4-(4-{[2-(4-chlorophenyl)-4,4-dimethylcyclohex-1-en-1-yl]methyl}piperazin-1-yl)-N-[(4-{[(3S)-1-(2,2-difluoroethyl)pyrrolidin-3-yl]amino}-3-nitrophenyl)sulfonyll]-2-(1H-pyrrolo[2,3-b]pyridin-5-yloxy)benzamide] is 0.068 nM.
